Mass density and viscosity data for one molecule are collected here from the NIST ThermoML archive (doi:10.1021/je800497u).

For the data set the following is noted: 101 kPa, Liquid.

Molecules are shown by their SMILES. Numbers after ± are expanded uncertainties.

Usually mass density stands for the mass of a sample divided by its volume. The term viscosity denotes the internal friction of a fluid under shear. With `CCCO` [propan-1-ol], for the setting “293.15 K”, the mass density came to 803.5 ± 0.7 kg/m3 and the viscosity is recorded as 2.272 ± 0.052 mPa·s. For the setting “298.15 K”, the mass density was 799.6 ± 0.7 kg/m3 and the viscosity was determined as 1.966 ± 0.045 mPa·s.
